Consider one substance from US20260234187A1, “ANTIMICROBIAL PEPTIDES” (MATERIAS S.R.L., priority 2020, published 2026).

pIC50: −log10 of the molar value. Where two headings read alike, the source gives them in different places. Where no end group is shown, it is not given here.

For series [1], the system named is Aspergillus brasiliensis (ATCC 9341). Description: antifungal activity, plate count, MFC. In kind it is cell-based. The following applies: A. brasiliensis; 25 μM, 6 h. As for the experimental part: The antifungal activity of the RiLK1 peptide was determined against Aspergillus brasiliensis. For this purpose, a stock culture was prepared in which 10^5 CFUs of A. brasiliensis were inoculated in 10 ml of buffered peptone water. A reference strain (ATCC 9341) was used for this fungal species. The culture was incubated for 6 h at 37° C. with the RiLK1 peptide at 25 μM concentrations. At the same time, control samples were incubated without adding the peptide. 100 μl of the samples thus prepared were seeded on DG18 plates (Dichloran 18% Glycerol Agar-ISO 21527-2) and incubated at 25° C. for 7 days. All experimental conditions investigated used the plate count method to estimate the fungicidal activity of the peptide. Specifically, the numbers of colonies grown on agar plates seeded with the fungal suspensions in the absence or presence of the individual peptide dilutions were counted and compared. The standard deviations of the triplicate incubations of each plate were determined using statistical software. The evaluation of the Minimum Fungicidal Concentration (MFC), i.e., the lowest concentration of antifungal agent capable of 99.9% inhibition of fungal growth on plates, was carried out as described in Bílikova et al, (2015, Peptides 68:190-196).

In series [2] the test system is Listeria monocytogenes LM2. In kind it is cell-based. The settings on record: LM2, 6 h. As for the experimental part:
The bactericidal activity of the RiLK1 peptide was assessed against both Gram positive (Listeria monocytogenes LM2 and Staphilococcus aureus) and Gram negative (Salmonella typhimurium and Escherichia coli) pathogenic bacteria. The assessment of the concentration of the two peptides capable of inhibiting 50% of bacterial growth (IC50) was performed by the broth microdilution assay as described in Wang H X and Ng TB (2003, Peptides 24:969-972). The standard deviations and the IC50s for triplicate incubations of each plate were determined using GraphPad Prism version 6.00 (Graph-Pad Software, La Jolla California USA). All experimental conditions investigated used the plate count method to estimate the bactericidal activity of the peptides. Specifically, the numbers of colonies grown on agar plates seeded with the bacterial suspensions in the absence or presence of the individual peptide dilutions were counted and compared. The standard deviations of the triplicate incubations of each plate were determined using statistical software. A control stock suspension was prepared in which 10^3 CFUs of L. monocytogenes were inoculated in 10 ml of Half Fraser Broth and serial dilutions (100 to 0.01 μM) of the suspension were performed. […]

Series [3] is classed as physicochemical. The method, then:
The structural and conformational characterization of the RiLK1 peptide was assessed by investigating its secondary structure by ^1H NMR spectroscopy in H2O and in a micellar solution of SDS at a concentration of 150 mM to mimic the condition of the bacterial cell membrane.
In fact, the representative structures of the RiLK1 peptide in water show a random orientation of both polar and hydrophobic amino acid side chains.
The helical structure appears well defined and stabilized by hydrophobic interactions of amino acid residues located on the opposite face. It is important to note that, in this arrangement, all the charged side chains are iso-oriented and well prone to interact with the negatively charged surface of the SDS micelles. Furthermore, the two tryptophan residues within the RiLK1 sequence are located at an optimal distance for their mutual stacking, thus contributing to the stabilization of the helix. It should be pointed out that the ^1H NMR spectra of the peptide IDR-1018-K6 (described in patent application WO2019012158) could not be acquired in the presence of micellar solutions of SDS since it is not soluble at the concentrations required to carry out these assays. […] Therefore, it is possible to assert that the NMR analysis in the presence of SDS has shown that the RiLK1 peptide of the present invention is capable of adopting the helix conformation, whereas the IDR-1018-K6 peptide (object of patent WO2019012158) has poor solubility and a heterogeneous system not suitable for NMR structural characterization (Table 2).

Series [4] is classed as physicochemical. The following applies: 50 μM in 1M NaCl, 25° C. The method, then: The stability analysis of the RiLK1 peptide in the presence of a high concentration saline solution (1M NaCl) was carried out by reverse phase (RP) HPLC chromatography, performed on a μBondpack C18 column. 50 μM RiLK1 peptide was dissolved in 1 M NaCl and the samples were incubated at 25° C. and monitored for 9 days.

Series [5] relates to S. typhimurium. The series is classed as cell-based, Salmonella typhimurium. The settings on record: S. typhimurium. As for the experimental part:
The evaluation of the Minimum Bactericidal Concentration (MBC), i.e., the lowest concentration of antimicrobial agent capable of 99.9% inhibition of bacterial growth on plates, was carried out as described in Bílikova et al, (2015, Peptides 68:190-196). […] It should be noted that the peptide object of the present invention is more powerful and efficient than the peptide IDR-1018-K6 (described in patent application WO2019012158) against the pathogenic bacteria L. monocytogenes and S. typhimurium, with bactericidal concentration values 4-fold and 7-fold lower, respectively, compared to those shown by IDR-1018-K6.

As usually defined, the pIC50 is the IC50 on a negative log10 scale, so that one unit is a factor of ten. The low end stands for a high IC50, the high end for a low IC50. As usually defined, the solubility is the dissolved amount per volume that the medium holds. As to RLKWVRIWRR-NH2 [RiLK1, RLKWVRIWRR], the “Drop Log CFU/ml” value in series [1] was found to be 5 Log CFU/ml. Also, the “post-treatment decrease in the fungal load” value in series [1] worked out at 5 Log. In series [2], this substance showed a pIC50 of 6.34. In addition, the solubility came out at 1000 µM in series [3] and 900 µM in series [3] (pH 4.4). The yield result in series [4] (5 hours) was “+6%”; in series [4] (24 hours) it was “+6%”; in series [4] (29 hours) it was “+3%”; in series [4] (48 hours), −1.5%^; in series [4] (53 hours) it was “+4.3%^”; in series [4] (6 days), −6.3%^. The yield in series [4] (9 days) was −8%. Moreover, the “bactericidal concentration lower compared to IDR-1018-K6” value in series [5] was determined as 7 fold.
